Laboratory results reported in paper PMC7450938, “Prenatal to early postnatal neurotrophic treatment prevents Alzheimer-like behavior and pathology in mice” (Alzheimer's Research & Therapy, 2020).

Key:
P-tau (Ser396/404) = assay: PHF-1 immunofluorescence, hippocampal CA1; format: in vivo, mouse; conditions: hippocampal CA1 region, 22-month-old 3xTg-AD mice; P021 diet E8-PND21; vs 3xTg-Vh
Experimental: (§1) We treated 2- to 3-month-old pregnant 3xTg-AD and WT mothers with compound P021 in mouse chow, or with vehicle feed as control at E8 until their offspring/pups reached PND21, at which point the offspring were separated and put on standard mouse chow (Fig. 1). Treatment was administered as 60 nmol peptide/g formulated diet (Research Diets; New Brunswick, NJ, USA). The vehicle-treated control animals received the same diet but without the peptide. On average, each mouse consumed ~ 2.7 g diet/day.
(§2) The complete right hemisphere was immersion-fixed in 4% paraformaldehyde in 0.1 M PBS for 24–48 h, followed by cryoprotection in a 30% sucrose solution at 4 °C overnight. Later, the 40-μm-thick sagittal sections were cut on a freezing microtome. […]
(§3) Immunofluorescence staining was performed on free-floating sections, and every 12th brain section was chosen for densitometry and quantification. For immunohistochemical quantification, six brain sections of four animals per group were analyzed. All stainings for fluorescence-intensity quantification were carried out under identical conditions, including all tissue samples for a particular staining processed at the same time, and experimental and control sections photographed under identical settings. […]

Aβ plaques = assay: Thioflavin-S-positive plaque load; format: in vivo; conditions: subiculum, 22-month-old 3xTg-AD mice; 6 sections per mouse, n = 4 mice; P021 diet E8-PND21
Experimental: as §1
Thioflavin-S–positive (TS+) plaque load was quantified on every 12th section (roughly six sections per set) of four animals from 22-month-old groups. A modified thioflavin-S staining protocol was used as follows. Free-floating brain sections were washed in large volumes of distilled water, incubated in 0.25% KMnO4 for 4–5 min, washed with water, and treated with a solution of 1% K2S2O5 and 1% oxalic acid for 40–60 s until the brown color was completely washed out. Sections were then incubated with 0.05% thioflavin-S in water in the dark for 8 min, followed by differentiation in 80% ethanol twice for 1 min each. […] The images were taken by using a Nikon 90i fluorescent microscope, threshold using ImageJ (v.1.46r), and TS+ plaque load was quantified in the hippocampus CA1 and subiculum areas.

APP = assay: Western blots of p-APP (Thr668) in hippocampus; format: in vivo, mouse; conditions: 22-month-old 3xTg-AD mice, normalized with GAPDH, n = 4, P021 diet E8-PND21
Experimental: as §1
The tissue from the left cerebral hemisphere from each mouse stored at− 80 °C was homogenized in a Teflon-glass homogenizer to generate 10% (w/v) homogenate. […] Each homogenate was boiled in 2× Laemmli sample buffer for 5 min, and protein concentration was measured by PierceTM 660-nm protein assay (Thermo Scientific; Rockford, IL, USA).
The samples were subjected to 10% SDS-PAGE and electro-transferred onto Immobilon-P membranes (EMD Millipore; Billerica, MA, USA). […] Densitometric quantification of protein bands in Western blots was analyzed using Multi Gauge version 3.0 software (FUJIFILM North America; Valhalla, NY, USA).

[1] = system: NR1, NR2A, NR2B, GluR1, GluR2&3, p-CREB; assay: Western blots of glutamate receptors and CREB in hippocampus; format: in vivo, mouse
Experimental: as §1
(§4) The tissue from the left cerebral hemisphere from each mouse stored at− 80 °C was homogenized in a Teflon-glass homogenizer to generate 10% (w/v) homogenate. The pre-chilled homogenization buffer contained 50 mM Tris–HCl (pH 7.4), 8.5% sucrose, 2 mM EDTA, 2 mM EGTA, 10 mM β-mercaptoethanol plus the following protease and phosphatase inhibitors: 0.5 mM AEBSF, 10 μg/mL aprotinin, 10 μg/mL leupeptin, 4 μg/mL pepstatin, 5 mM benzamidine, 20 mM β-glycerophosphate, 50 mM sodium fluoride, 1 mM sodium orthovanadate, and 100 nM okadaic acid. Each homogenate was boiled in 2× Laemmli sample buffer for 5 min, and protein concentration was measured by PierceTM 660-nm protein assay (Thermo Scientific; Rockford, IL, USA).
(§5) The samples were subjected to 10% SDS-PAGE and electro-transferred onto Immobilon-P membranes (EMD Millipore; Billerica, MA, USA). The blots were then probed with primary antibodies (Table 1) and developed with the corresponding HRP-conjugated secondary antibody and enhanced chemiluminescence (Pierce Biotechnology, Rockford, IL, USA). Densitometric quantification of protein bands in Western blots was analyzed using Multi Gauge version 3.0 software (FUJIFILM North America; Valhalla, NY, USA).

Iba-1, GFAP = assay: Western blots of Iba-1 and GFAP in hippocampus; format: in vivo, mouse; conditions: for increase of GFAP: 3xTg-AD mice, P021 diet E8-PND21, n = 3-4/group; for expression of Iba-1: among groups
Experimental: as §1, §4, §5

GFAP = GFAP immunofluorescence, CA1; format: in vivo, mouse; conditions: P021 diet E8-PND21
Experimental: as §1, §2, §3

[2] = 4 months, 3xTg-AD mice, P021 diet E8-PND21, n = 3-4/group
[3] = 22 months, 3xTg-AD mice, P021 diet E8-PND21, n = 3-4/group

For “Ac-DGGL^AG-NH2 [P021, 4-mer CNTF small molecule peptide mimetic to which adamantylated glycine was added at the C-terminal]”, the “PHF-1 immunofluorescence, percent area” value (P-tau (Ser396/404)) was “attenuated”, the “plaque burden by thioflavin-S staining” value (Aβ plaques) was “a significant decrease” and the “level of phosphorylation of APP at Thr668” value (APP) was “rescued”. For the same substance, the “level of GluR1” value [1, 2] was “increased”, the “level of NR1” value [1, 2] was “increased” and the “level of NR2A” value [1, 2] was “increased”. The “level of phosphorylated CREB (p-CREB)” value [1, 2] was “increased”, the “level of GluR2&3” value ([1]; 4 months, among groups) was “no significant changes” and the “level of NR2B” value ([1]; 4 months, among groups) was “no significant changes”. For the same substance, the “level of NR1” value [1, 3] was “increased”, the “level of NR2A” value [1, 3] was “increased” and the “level of p-CREB” value [1, 3] was “increased”. For the same substance, the “level of GluR1” value ([1]; 22 months, among groups) was “no significant changes”, the “level of GluR2 and 3” value ([1]; 22 months, among groups) was “no significant changes” and the “level of NR2B” value ([1]; 22 months, among groups) was “no significant changes”. The “increase of GFAP” value (Iba-1, GFAP; 4 months) was “rescued”, the “expression of Iba-1” value (Iba-1, GFAP; 4 months) was “no significant changes” and the “increase of GFAP” value (Iba-1, GFAP; 22 months) was “rescued”. The “expression of Iba-1” value (Iba-1, GFAP; 22 months) was “no significant changes”, the “astrocyte morphology at high magnification” value (GFAP; CA1, 22-month-old 3xTg-AD mice, 3xTg-Vh astrocytes amoeboid) was “ramified with long processes and small cell body (resting phenotype)” and the GFAP immunoreactivity (GFAP; CA1 region, 22-month-old 3xTg-AD mice) was “rescued”.
